≈ marks a conversion by molar mass, not a printed value.
Legend:
APEC O18 = test: MIC and MBC determination in M63 media; format: cell-based; conditions: Escherichia coli
[1] = test system: intracellular APEC O1 in HD11 cells; test: Intracellular survival assay; format: cell-based, Escherichia coli; conditions: for minimal effective concentration: Escherichia coli, O1, HD11, 6 h treatment, read-out: SMs intracellular APEC clearance concentration; for concentration at which the SM significantly (P < 0.01) reduced intracellular APEC (superscript of t-statistic): O1, HD11, 6 h
Protocol: (§1) Intracellular survival assay was conducted as described previously[28],[29] to determine the effect of cidal SMs on APEC survival in phagocytic (HD11, THP-1) and non-phagocytic (Caco-2) cells. Briefly, mid-logarithmic phase grown APEC O78, O1, and O2 were washed and adjusted to 1 × 10^7 CFU/mL in cell culture incomplete media (no FBS and antibiotics). One-hundred microlitres adjusted APEC suspension was added at multiplicity of infection (MOI) 10 to wells of 96-well cell culture plate containing cultured macrophage (HD11, THP-1) and epithelial cells (Caco-2) and incubated for 1 h and 3 h, respectively. […] The cells were then lysed with 100 µL of 0.1% Triton X-100 for 5 mins, serially diluted, and plated on LB agar plate to enumerate viable bacteria. The intracellular bacteria in SMs treated wells were compared with DMSO (1%) treated wells. Two independent experiments in duplicate wells for each concentration of SMs were conducted.

[2] = test system: intracellular APEC O1 in Caco-2 cells; test: Intracellular survival assay; format: cell-based, Escherichia coli; conditions: for minimal effective concentration: Escherichia coli, O1, Caco-2, 6 h treatment, read-out: SMs intracellular APEC clearance concentration; for concentration at which the SM significantly (P < 0.01) reduced intracellular APEC (superscript of t-statistic): O1, Caco-2, 6 h
Protocol: as §1

[3] = test system: intracellular APEC O78 in THP-1 cells; test: Intracellular survival assay; format: cell-based, Escherichia coli; conditions: for minimal effective concentration: Escherichia coli, O78, THP-1, 6 h treatment, read-out: SMs intracellular APEC clearance concentration; for intracellular APEC clearance concentration as multiple of MIC (superscript): O78, THP-1; for concentration at which the SM significantly (P < 0.01) reduced intracellular APEC (superscript of t-statistic): O78, THP-1, 6 h
Protocol: as §1

[4] = test system: intracellular APEC O2 in THP-1 cells; test: Intracellular survival assay; format: cell-based, Escherichia coli; conditions: for minimal effective concentration: Escherichia coli, O2, THP-1, 6 h treatment, read-out: SMs intracellular APEC clearance concentration; for concentration at which the SM significantly (P < 0.01) reduced intracellular APEC (superscript of t-statistic): O2, THP-1, 6 h
Protocol: as §1

[5] = test system: intracellular APEC O1 in THP-1 cells; test: Intracellular survival assay; format: cell-based, Escherichia coli; conditions: for minimal effective concentration: Escherichia coli, O1, THP-1, 6 h treatment, read-out: SMs intracellular APEC clearance concentration; for concentration at which the SM significantly (P < 0.01) reduced intracellular APEC (superscript of t-statistic): O1, THP-1, 6 h; for intracellular APEC clearance concentration as multiple of MIC (superscript): O1, THP-1
Protocol: as §1

[6] = test system: intracellular APEC O2 in HD11 cells; test: Intracellular survival assay; format: cell-based, Escherichia coli; conditions: for minimal effective concentration: Escherichia coli, O2, HD11, 6 h treatment, read-out: SMs intracellular APEC clearance concentration; for intracellular APEC clearance concentration as multiple of MIC (superscript): O2, HD11; for concentration at which the SM significantly (P < 0.01) reduced intracellular APEC (superscript of t-statistic): O2, HD11, 6 h
Protocol: as §1

[7] = test system: intracellular APEC O78 in HD11 cells; test: Intracellular survival assay; format: cell-based, Escherichia coli; conditions: for minimal effective concentration: Escherichia coli, O78, HD11, 6 h treatment, read-out: SMs intracellular APEC clearance concentration; for intracellular APEC clearance concentration as multiple of MIC (superscript): O78, HD11; for concentration at which the SM significantly (P < 0.01) reduced intracellular APEC (superscript of t-statistic): O78, HD11, 6 h
Protocol: as §1

APEC O78 [8] = test: Scanning electron microscopy; format: cell-based, Escherichia coli; conditions: 2X MBC
Protocol: The SMs treated APEC O78 cultures prepared above were also processed for scanning electron microscopy (SEM) as described previously. […] Briefly, one volume of bacterial culture was mixed with one volume of fixative (3% glutaraldehyde, 1% paraformaldehyde in 0.1 M potassium phosphate buffer, pH 7.2), and incubated at 4 °C overnight. The fixed bacterial cells were then centrifuged for 5 mins at 1,200 × g, washed twice with PBS, and resuspended in 1% osmium tetroxide for 1 h at room temperature in the dark, followed by serial dehydration of the sample in ethanol and platinum splatter-coating. Visualization and imaging of the sample was performed using a Hitachi S-4700 scanning electron microscope.

[9] = test system: STEC O157 and O26 strains; test: Activity against STEC strains at 100 µM in M63 media; format: cell-based, Escherichia coli
APEC O78 [10] = test: Primary screening, growth inhibition of APEC O78; format: cell-based, Escherichia coli; conditions: 100 µM SM; no APEC recovered on LB agar subculture
Protocol: To identify the APEC growth inhibitors, SM library was screened against APEC O78 which is one of the most frequently isolated APEC serotypes from avian colibacillosis cases. One microlitre SMs (final concentration of 100 µM) were added using a slotted pin tool (V and P Scientific, San Diego, CA, USA) to the wells of the 96-well plate containing 100 µL of overnight grown 0.05 OD600 (7 × 10^7 CFU/mL) adjusted APEC culture. Controls (four replicates/plate) containing 1 µL of 100% DMSO (final concentration of 1%), 1 µL chloramphenicol (CHL, #C0378 Sigma-Aldrich) (20 µg/mL), 1 µL kanamycin (KAN, #60615 Sigma-Aldrich) (50 µg/mL), and 100 µL of M63 media were included. To determine the effect of DMSO on APEC growth, antimicrobial activity of DMSO was determined at different concentrations (1% to 32%) in a separate experiment. Plate was then incubated at 37 °C for 12 h in Sunrise - Absorbance microplate reader (Tecan Group Ltd. San Jose, CA) with kinetic OD600 measurement every 30 mins. The quality of screening was assessed by calculating the Z′-score as described previously. The growth inhibition of APEC was calculated by using the formula as previously described[13],[14]. The SMs inhibiting at least 80% of the APEC growth were selected as primary hits. […]

SMILES	MBC (APEC O18) [µM]	MIC (APEC O18) [µM]	minimal effective concentration [1] [µM]	concentration at which the SM significantly (P < 0.01) reduced intracellular APEC (superscript of t-statistic) [1]	minimal effective concentration [2] [µM]	concentration at which the SM significantly (P < 0.01) reduced intracellular APEC (superscript of t-statistic) [2]	minimal effective concentration [3] [µM]	intracellular APEC clearance concentration as multiple of MIC (superscript) [3]	concentration at which the SM significantly (P < 0.01) reduced intracellular APEC (superscript of t-statistic) [3]	minimal effective concentration [4] [µM]	concentration at which the SM significantly (P < 0.01) reduced intracellular APEC (superscript of t-statistic) [4]	minimal effective concentration [5] [µM]	concentration at which the SM significantly (P < 0.01) reduced intracellular APEC (superscript of t-statistic) [5]	minimal effective concentration [6] [µM]	intracellular APEC clearance concentration as multiple of MIC (superscript) [6]	concentration at which the SM significantly (P < 0.01) reduced intracellular APEC (superscript of t-statistic) [6]	minimal effective concentration [7] [µM]	intracellular APEC clearance concentration as multiple of MIC (superscript) [7]	concentration at which the SM significantly (P < 0.01) reduced intracellular APEC (superscript of t-statistic) [7]	intracellular APEC clearance concentration as multiple of MIC (superscript) [5]	other results
CC1CCC(C(C)C)C(OC(=O)Cn2c[n+](CC(=O)OC3CC(C)CCC3C(C)C)c3ccccc32)C1 (stereo not drawn) [SM4]	50	25	50	b (1X MIC)	100	c (2XMIC)	50	b (2X MIC)	a (0.5X MIC)	100	b (1X MIC)	> 100	b (1X MIC)	50	b (2X MIC)	a (0.5X MIC)	50	b (2X MIC)	a (0.5X MIC)		intracellular APEC clearance concentration as multiple of MIC (superscript) ([2]; O1, Caco-2): c (4X MIC); cell morphology in SEM (APEC O78 [8]): severe wrinkling and multiple blebbing throughout the cells (membrane disruptors)
CC1CCCN(CCC(=O)c2ccc(Br)cc2)C1 (stereo not drawn) [SM1]	200 (≈ 62 µg/mL)	200 (≈ 62 µg/mL)	400	a (0.5X MIC)	> 400	b (1X MIC)	200	a (1X MIC)	a (0.5X MIC)	200	b (1X MIC)	400	a (0.5X MIC)	200	a (1X MIC)	a (0.5X MIC)	200	a (1X MIC)	a (0.5X MIC)	b (2X MIC)	bactericidal activity against STEC strains [9]: not cidal; bactericidal effect in primary screening (APEC O78 [10]): bactericidal
COc1ccc(CCN(Cc2cc3c(cc2Cl)OCO3)CC2CCN(C)CC2)cc1 [SM11]	200 (≈ 86.2 µg/mL)	200 (≈ 86.2 µg/mL)	200	b (1X MIC)	> 200	b (1X MIC)	100	a (1X MIC)	a (0.5X MIC)	100	a (0.5X MIC)	> 200	b (1X MIC)	200	b (2X MIC)	a (0.5X MIC)	100	a (1X MIC)	a (0.5X MIC)		bactericidal activity against STEC strains [9]: not cidal
COc1cc(CNCCc2ccc3ccccc3c2)ccc1OCC(O)CN1CCCC1 (stereo not drawn) [SM2]	200 (≈ 86.9 µg/mL)	100 (≈ 43.5 µg/mL)	200	a (0.5X MIC)	> 200	a (0.5X MIC)	100	a (1X MIC)	a (0.5X MIC)	100	b (1X MIC)	200	a (0.5X MIC)	200	b (2X MIC)	a (0.5X MIC)	100	a (1X MIC)	a (0.5X MIC)	b (2X MIC)	bactericidal activity against STEC strains [9]: not cidal
COc1cc(CNCCc2ccc(C)cc2)ccc1OCC(O)CN1CCCC1 (stereo not drawn) [SM3]	100 (≈ 39.9 µg/mL)	100 (≈ 39.9 µg/mL)	200	a (0.5X MIC)	> 200	c (2XMIC)	100	a (1X MIC)	a (0.5X MIC)	100	a (0.5X MIC)	200	a (0.5X MIC)	200	b (2X MIC)	a (0.5X MIC)	100	a (1X MIC)	a (0.5X MIC)	b (2X MIC)	cell morphology in SEM (APEC O78 [8]): blebbing and pore at single cell pole, respectively
